From ChEMBL document CHEMBL4368861 (Medchemcomm, 2018)

Experiments:
[1] = tested on: Trypanosoma brucei brucei; test: microbe, parasite or virus in culture; format: functional, organism-based; details: 427
[2] = in vitro; details: human
[3] = tested on: Trypanosoma brucei brucei; test: Antitrypanosomal activity against Trypanosoma brucei brucei by pathogen box screening based assay; format: functional, organism-based

Row | Compound | IC50 [1] [µM] | IC50 [3] [µM] | selectivity ratio [2]
1 | CCOC(=O)c1c(NC(=O)c2c(F)c(F)c(F)c(F)c2F)sc(C(N)=O)c1C | 2.99 |  | 2.2
2 | Cc1cnc(N2CCN[C@@H](Cc3ccccc3)C2)nc1Oc1ccc(-n2ccnc2)cc1 |  |  | 4.9
3 | O=C(Nc1nc(-c2ccccn2)cs1)c1cncn1-c1ccccc1 | 2.87 |  | 
4 | COc1cc(-c2cc(-c3ccc(S(C)(=O)=O)cc3)cnc2N)ccc1O |  |  | 76
5 | O=C(NCCc1ccccc1)c1cc(-c2cccnc2)cnc1NCC1CC1 | 6.02 |  | 
6 | OCCc1ccc(Nc2nccc(-c3nnc4ccccn34)n2)cc1 | 2.39 |  | 17
7 | COc1cccc(-n2nnnc2S(C)(=O)=O)c1 | 4.12 |  | 
8 | N=C(N)c1ccc(-c2cc(-c3ccccc3)on2)cc1 | 3.5 |  | 
9 | O=C(Nc1ccccc1)c1ccc(-c2cc3ccncc3cc2OC2CCNCC2)s1 | 2.72 |  | 
10 | Cc1ccc2c(c1C)NC(=O)C21NN=C(c2ccccc2)S1 (configuration not stated) | 4.68 |  | 
11 | Cc1nn(C)c(C)c1NS(=O)(=O)c1c(Cl)cc(-c2ccnc(N3CCNCC3)c2)cc1Cl | 0.01 |  | 
12 | CN(C)c1cc(NC(=O)Nc2ccccc2)c2ccccc2n1 | 3.36 |  | 5.3
13 | CCCn1c(NC(=O)c2ccc3ccccc3n2)nc2ccccc21 |  |  | 3.5
14 | Oc1c(I)cc(I)c2cccnc12 [IODOQUINOL] |  |  | 13
15 | CO[C@@H](C(=O)N1Cc2[nH]nc(NC(=O)c3ccc(N4CCN(C)CC4)cc3)c2C1)c1ccccc1 [DANUSERTIB] | 1.3 |  | 
16 | COc1ccc2nccc(NC(=O)C3CCN(CCc4ccc(Cl)cc4)CC3)c2n1 |  |  | 0.8

Row | Compound | IC50 [1] [µM] | IC50 [3] [µM] | selectivity ratio [2]
17 | c1ccc(Oc2ccc(-c3cc(N4CCNCC4)[nH]n3)cc2)cc1 | 5.1 |  | 
18 | CN1CCN(S(=O)(=O)c2ccc(-c3ccc4c(Nc5ncc(Cl)cn5)ccnc4c3)cc2)CC1 | 5.3 |  | 
19 | CCN(CC)S(=O)(=O)c1ccc(C(=O)Nc2cc(C)nn2-c2nc(C)c(C)c(=O)[nH]2)cc1 | 4.3 |  | 
20 | CC(C)n1nc(-c2cc3c(Cl)cccc3[nH]2)c2c(N)ncnc21 | 6.1 |  | 5.8
21 | Nc1nccc2ccc(-c3ccc4nccn4c3)cc12 | 3.29 |  | 
22 | CS(=O)(=O)c1ccc(C(=O)N(CC2CCCO2)c2nc3ccccc3s2)cc1[N+](=O)[O-] (configuration not stated) | 3.49 |  | 2.3
23 | COc1ccc(C2=NN(C3CCCCCC3)C(=O)[C@@H]3CC=CC[C@H]23)cc1OCCCCOc1ccc(-c2nnn[nH]2)cc1 | 0.5 |  | 
24 | CC1=Nc2ccc(Cl)cc2C(O)(c2ccc(C)cc2)N1CCN1CCCCC1 (configuration not stated) | 4.5 |  | 
25 | CC(C)(C)c1cnc(NC(=O)c2ccccc2O)s1 | 5.45 |  | 
26 | Cc1ccc2[nH]c(C3CCCNC3)c(-c3ccncc3)c2c1 (configuration not stated) | 5.15 |  | 
27 | CN1CCC(NCc2cccc(-c3ccc(S(=O)(=O)NCc4ccccc4)cc3)c2)CC1 | 2.38 |  | 59
28 | CC(Oc1ccccc1)C(=O)Nc1nc(-c2ccccn2)cs1 (configuration not stated) | 3.22 |  | 11
29 | c1ccc(-c2nc(NC3CCCCC3)cc(C3CC3)n2)nc1 | 3.51 |  | 30
30 | COC(=O)c1c(NC(=O)c2c(F)c(F)c(F)c(F)c2F)sc2c1CCCCC2 |  |  | 2.2
31 | N=C(N)Nc1ccc(-c2ccc(-c3ccc(NC(=N)N)cc3Cl)o2)c(Cl)c1 | 5.7 |  | 

Now from value to molecule, other results behind:

Row | IC50 [1] [µM] | IC50 [3] [µM] | Compound | selectivity ratio [2]
32 | 0.23 |  | O=C(NCc1nnc2n1CCCCC2)c1ccc(-c2ccc(F)cc2)o1 | 
33 | 0.14 |  | Cc1ncc(-c2ccnc(Nc3ccc(S(C)(=O)=O)cc3)n2)n1C(C)C [AZD-5438] | 
34 | 1.1 |  | COc1ccc(S(=O)(=O)Nc2ccc(CN3CCN(C(=O)c4cccc(C#N)c4)CC3)cc2)cc1 | 
35 | 1.8 |  | c1ccc(Oc2ccc(-c3cc(C4CCOCC4)[nH]n3)cc2)cc1 | 
36 | 1.8 | 0.5 | Cc1nn2c(=O)c3c([nH]c2c1-c1ccc(Cl)cc1)CCCC3 | 
37 | 2.3 |  | COc1ccc(C2=NN(C3CCCCCC3)C(=O)C2(C)C)cc1OCCCCOc1ccc(-c2nn[nH]n2)cc1 | 
38 | 1 |  | CCC(=O)Nc1ccccc1C(=O)Nc1ccccn1 | 
39 | 1.45 |  | O=C(Nc1ccc(N2CCNCC2)cc1)c1ccn2ncc(-c3cccc(Cl)c3)c2n1 | 
40 | 0.27 |  | COc1ccc(C(=N)N)cc1-c1cn(-c2ccc(C(=N)N)cc2)nn1 | 
41 | 1.2 |  | CCCCN(CCCC)c1c(C#N)cc(S(=O)(=O)Nc2ccccc2)cc1C#N | 
42 | 0.66 |  | O=C(Nc1ccc(C(F)(F)F)c(C(F)(F)F)c1)c1cc(Cl)ccc1O | 
43 | 0.13 |  | CC1CCCCN1C(=O)NCCc1coc(-c2ccc(F)cc2)n1 (configuration not stated) | 
44 | 0.52 |  | N=C(N)Nc1ccc(-c2ccc(-c3ccc(N=C(N)N)c(Cl)c3)o2)cc1Cl | 
45 | 0.17 |  | CNC(=O)c1nn(C)c2c1C(C)(C)Cc1cnc(Nc3ccc(N4CCN(C)CC4)cc3)nc1-2 [MILCICLIB] | 
46 | 0.24 |  | Cc1ccc(S(=O)(=O)Nc2ccc(CN3CCN(C(=O)c4cccc(C#N)c4)CC3)cc2)cc1 | 
47 | 0.27 |  | O=C(NCCc1ccn(-c2ccccc2)n1)C1CCCCC1 | 
48 | 0.24 |  | NCCN(C(=O)c1ccc(Cl)cc1Cl)c1ccc(OCc2ccc(Cl)cc2)cc1 | 
49 | 1.2 |  | Cc1noc(C)c1COc1cccc(C(=O)N=c2[nH]cccc2C)c1 | 
50 | 2.07 |  | COc1ccc(OC)c(NCc2ccc3nc(N)nc(N)c3c2Cl)c1 | 21
51 | 1.05 |  | Nc1nc2cc(-c3cncc(Oc4ccc(F)cc4)c3)ccc2[nH]1 | 
52 | 1.5 |  | CNC(=O)C1Cc2ccccc2N1C(=O)Cc1ccc(F)cc1 (configuration not stated) | 
53 | 0.11 |  | O=C(Nc1ccc2c(c1)B(O)OC2)c1ccccc1C(F)(F)F | 
54 | 1.5 |  | Cc1[nH]c2ccccc2c1C(c1cccs1)N1CCN(C)CC1 (configuration not stated) | 
55 | 0.5 |  | CS(=O)(=O)c1ccccc1C(=O)N(Cc1ccccc1)c1ccccc1 | 
56 | 0.13 |  | CCc1ccccc1-n1c(C)cn2c3c(=O)n(C(C(=O)OC)C(C)C)c(=O)n(C)c3nc12 (configuration not stated) | 
57 | 0.02 |  | O=C(Nc1ccc(F)c(-c2nc3cc(-c4ccccc4)cnc3[nH]2)c1)N1CCCC1 | 
